In ChEMBL document CHEMBL1158864, “Pyrrolizidine Alkaloids from Senecio r oseus and Senecio h elodes” (J Nat Prod, 1997):
Activity calls are given as the source filed them. No cut-off for these calls is given here.

Assays:
[1] = (§1) Toxicity against Artemia salina; format: organism-based; conditions: in vivo
[2] = tested on: Escherichia coli; experiment: Antimicrobial activity against Escherichia coli ATCC 10536; format: functional, organism-based
[3] = tested on: Trichoderma viride; experiment: Antimicrobial activity against Trichoderma viride; format: functional, organism-based
[4] = tested on: Aspergillus niger; experiment: Antimicrobial activity against Aspergillus niger; format: functional, organism-based
[5] = tested on: Artemia salina; experiment: as §1; format: organism-based; conditions: in vivo

C[C@@H]1C[C@]2(C)CC(=O)O[C@@H]3CCN4CC=C(COC(=O)[C@@]1(C)O2)[C@H]34 [RETROISOSENINE HYDRCHLORIDE]
LC50 [1]: > 300 µg/mL

C[C@@H]1C[C@]2(C)CC(=O)O[C@@H]3CCN4CC=C(COC(=O)[C@@]1(C)O2)[C@H]34
Activity [2]: inactive | Activity [3]: inactive | Activity [4]: inactive

C[C@@H]1C[C@]2(C)CC(=O)O[C@@H]3CCN4CC=C(COC(=O)[C@@]1(C)O2)[C@H]34 [RETROISOSENINE]
LC50 [5]: > 300 µg/mL

C[C@@H]1[C@@H](O)[C@]2(C)CC(=O)O[C@@H]3CCN4CC=C(COC(=O)[C@@]1(C)O2)[C@H]34
Activity [2]: inactive | Activity [3]: inactive | Activity [4]: inactive | LC50 [1]: > 300 µg/mL

C[C@@H]1C[C@]2(C)CC(=O)O[C@@H]3CCN4CC[C@H](COC(=O)[C@@]1(C)O2)[C@H]34 [MULGEDIIFOLINE]
Activity [2]: inactive | Activity [3]: inactive | Activity [4]: inactive | LC50 [1]: > 300 µg/mL
